Data on six molecules can be found in patent US20060110594A1, “Polymer-coated substrates for binding biomolecules and methods of making and using thereof” (priority 2004, published 2006).

Several values for one entry are separate records, joined by “and”; a condition that tells them apart may be missing. Equal entries are not always repeated. Where two headings read alike, the source gives them in different places.

In one data set the target is streptavidin (Streptomyces avidinii, UniProt P22629). Put plainly: Small molecule binding to streptavidin immobilized on EMA, Corning LID. As to conditions: for signal-to-noise ratio: binding to streptavidin immobilized on EMA. Here is the method: Streptavidin was immobilized on an EMA coated LID microplate by incubating the wells with a solution of 25 ug/mL of the protein in an acetate buffer (20 mM, pH 5.5) for 15 minutes. As negative controls, additional wells were blocked with ethanolamine. The binding of the small molecule fluorescein-biotin (“Fl-biotin”, 831 Da) was monitored as a function of time in the LID instrument. A 100 nM solution of Fl-biotin in PBS was introduced into each well and allowed to bind for several minutes. […] The data have been corrected for bulk index of refraction effects by subtracting out the response from the negative control well. […] This experiment was repeated in each column of the plate with similar results.
Sequence of streptavidin (P22629 25-183, species assumed): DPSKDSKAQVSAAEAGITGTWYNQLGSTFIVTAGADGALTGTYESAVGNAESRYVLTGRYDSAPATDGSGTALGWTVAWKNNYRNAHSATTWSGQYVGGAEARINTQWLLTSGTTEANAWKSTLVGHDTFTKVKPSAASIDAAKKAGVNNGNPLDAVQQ

Another data set addresses human serum albumin (Homo sapiens, UniProt P02768). Put plainly: Drug binding to human serum albumin immobilized on EMA, Corning LID.
Data set [1] deals with Lys-D-Ala-D-Ala. Put plainly: Vancomycin binding to immobilized Lys-D-Ala-D-Ala, SPR (Biacore 2000). As to conditions: for Total Signal: 5 μM vancomycin; for Nonspecific Binding: 5 uM vancomycin + 500 μM DADA; for Kd: Scatchard analysis, vancomycin 10, 5, 2.5, 1.25 μM. As to the method:
(Vancomycin is an antibiotic that binds to the C-terminal D-Ala-D-Ala group of Gram-positive bacterial cell wall precursors and inhibits cell wall synthesis.) Experiments were performed on the Biacore 2000 SPR instrument using gold sensor chips modified with either EMA or poly(triethylene glycol-co-maleic anhydride) (“PEG-MA”); for comparison, experiments were also performed on Biacore's CM5 surface.
On the technique in general: SPR reads the build-up and loss of mass on a sensor chip optically.

For data set [2], the system named is Lys-D-Ala-D-Ala. Put plainly: Vancomycin competitive inhibition binding assay, SPR. Here is the method:
(§1) To test the specificity of the interaction, a competitive binding assay was performed in which the surface was incubated with a fixed (5 μM) concentration of vancomycin in the presence of varying concentrations of the peptide Lys-D-Ala-D-Ala. […] Similar competitive inhibition experiments were performed on a Corning LID microplate coated with EMA (see FIG. 7).

In data set [3] the test system is Lys-D-Ala-D-Ala. Put plainly: Vancomycin competitive inhibition on EMA coated microplate, Corning LID. In kind it is binding. The conditions noted are these: in the presence of excess (250 uM) Lys-D-Ala-D-Ala. Here is the method:
as §1

For data set [4], the target named is Lys-D-Ala-D-Ala. As to conditions: measured in solution (ref 12); read-out: Kd reported in the literature; cited from earlier work.
For data set [5] the following is noted: isoelectric point, listed property; cited from earlier work.
Data set [6] in a line: Streptavidin binding to immobilized biotin on EMA coated microplate, Corning LID. As to conditions: streptavidin 100 nM in PBS, six wells. Here is the method:
The performance of EMA in a small molecule/protein binding assay was tested using a biotin/streptavidin model system and Corning LID detection. Biotin was immobilized in rows A-G of a Corning LID microplate by incubating each well with 75 uL of a 10 uM solution of biotin-peo-amine in borate buffer (150 mM, pH 9) for 30 minutes; row H was reacted with ethanolamine (200 mM in borate buffer, pH 9) to serve as a negative control. The plate was docked in the LID instrument and the binding of streptavidin (100 nM in phosphate buffered saline (PBS)) was monitored as a function of time as shown in FIG. 4A.

Data set [7] is described as follows: Streptavidin/BSA binding to biotin immobilized on MAMVE and SMA, Biacore SPR. As to conditions: streptavidin 1 μM; biotin-groups immobilized on MAMVE; BSA as control. From the text: Biacore SPR detection was used for these experiments in which biotin was immobilized on the surfaces by injecting solutions of 5-(biotinamido)pentylamine over each surface. […] Non-specific binding of proteins to surfaces such as those presenting hydrophobic aromatic groups is well documented; the inertness of surfaces presenting —OCH3 groups to non-specific adsorption has also been observed (13).

Sequence of human serum albumin (P02768 25-609): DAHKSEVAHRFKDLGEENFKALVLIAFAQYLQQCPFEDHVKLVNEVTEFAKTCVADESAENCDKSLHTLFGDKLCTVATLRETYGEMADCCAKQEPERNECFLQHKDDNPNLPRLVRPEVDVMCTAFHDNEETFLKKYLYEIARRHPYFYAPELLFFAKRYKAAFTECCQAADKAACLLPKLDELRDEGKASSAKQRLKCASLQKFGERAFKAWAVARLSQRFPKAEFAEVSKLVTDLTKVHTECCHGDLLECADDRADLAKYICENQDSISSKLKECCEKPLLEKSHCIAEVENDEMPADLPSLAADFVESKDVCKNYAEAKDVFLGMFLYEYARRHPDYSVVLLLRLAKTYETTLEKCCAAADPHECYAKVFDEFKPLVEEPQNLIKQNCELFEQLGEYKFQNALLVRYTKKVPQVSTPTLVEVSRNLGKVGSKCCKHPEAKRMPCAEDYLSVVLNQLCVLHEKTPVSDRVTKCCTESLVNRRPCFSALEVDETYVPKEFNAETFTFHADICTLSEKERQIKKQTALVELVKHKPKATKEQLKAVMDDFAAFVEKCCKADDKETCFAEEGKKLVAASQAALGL
Description for human serum albumin: HSA was immobilized on the sensor surface by incubating the wells with a solution of 60 ug/mL of the protein in an acetate buffer (20 mM, pH 5.5) for 15 minutes. As negative controls, additional wells were blocked with ethanolamine. After thorough washing with PBS buffer and water, residual reactive groups were blocked by incubating the wells for 10 minutes with ethanolamine (200 mM, pH 9.2).

As to `O=C(O)CCCC[C@@H]1SC[C@@H]2NC(=O)N[C@@H]21` [biotin], the “response for binding to immobilized streptavidin” value on streptavidin (EMA coated LID microplate, Fl-biotin 100 nM in PBS, relative to negative control well) was ~5 pm. Besides, on streptavidin, the signal-to-noise ratio was ~50.

`C[C@H]1O[C@@H](O[C@H]2[C@@H](O)C[C@H](O[C@H]3[C@@H](O)C[C@H](O[C@H]4CC[C@@]5(C)[C@H](CC[C@@H]6[C@@H]5CC[C@]5(C)[C@@H](C7=CC(=O)OC7)CC[C@]65O)C4)O[C@@H]3C)O[C@@H]2C)C[C@H](O)[C@@H]1O` [digitoxin]: the “lowest concentration successfully detected” value at human serum albumin was determined as 6 µM.

Take `O=C(CCCCCNC(=O)CCCC[C@@H]1SC[C@@H]2NC(=O)N[C@@H]21)NCCCCCNC(=S)Nc1ccc2c(c1)C(=O)OC21c2ccc(O)cc2Oc2cc(O)ccc21` [fluorescein-biotin]: the signal-to-noise ratio at streptavidin is > 200.

Regarding `CN[C@H](CC(C)C)C(=O)N[C@H]1C(=O)N[C@@H](CC(N)=O)C(=O)N[C@H]2C(=O)N[C@H]3C(=O)N[C@H](C(=O)N[C@H](C(=O)O)c4cc(O)cc(O)c4-c4cc3ccc4O)[C@H](O)c3ccc(c(Cl)c3)Oc3cc2cc(c3O[C@@H]2O[C@H](CO)[C@@H](O)[C@H](O)[C@H]2O[C@H]2C[C@](C)(N)[C@H](O)[C@H](C)O2)Oc2ccc(cc2Cl)[C@H]1O` [vancomycin], the “Total Signal” value turned out to be 1251 RU in the data set on Lys-D-Ala-D-Ala [1] (CM5 surface), 2538 RU in the data set with Lys-D-Ala-D-Ala [1] (EMA surface) and 2006 RU in the data set with Lys-D-Ala-D-Ala [1] (PEG-MA surface). Further, the “Nonspecific Binding” value in the data set with Lys-D-Ala-D-Ala [1] (CM5 surface) was 3 RU; with Lys-D-Ala-D-Ala [1] (EMA surface) it was 290 RU; in the data set with Lys-D-Ala-D-Ala [1] (PEG-MA surface), 128 RU. Further, the Kd – broadly, the free concentration of one partner at which half of the binding sites on the other are occupied at equilibrium, for simple one-to-one binding – on Lys-D-Ala-D-Ala [1] (CM5 surface) is 280 nM and 270 nM; at Lys-D-Ala-D-Ala [1] (EMA surface) it was 340 nM; on Lys-D-Ala-D-Ala [1] (PEG-MA surface), 1300 nM; at Lys-D-Ala-D-Ala [4], ~1000 nM. The “amount of nonspecific binding, lower on PEG-MA relative to EMA” value with Lys-D-Ala-D-Ala [2] (PEG-MA relative to EMA) is ~2 ×. The binding specificity with Lys-D-Ala-D-Ala [2] (both maleic anhydride copolymer surfaces tested (EMA, PEG-MA), 5 μM vancomycin) was > 90%. For the same molecule, the “reduction of vancomycin binding signal” value in the data set with Lys-D-Ala-D-Ala [3] was found to be 83%.

Take “Lysozyme: protein immobilized on EMA, 14 kDa”: the pI in [5] is reported as 9.5.

In turn, “streptavidin: protein binding biotin; 60 kDa” registered an average response in [6] of 465 pm. Also, the specificity of binding entry in data set [7] is reported as “specific”. The pI in data set [5] is recorded as 5.
